Measured values: PubChem BioAssay (NCI)
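Step 1: Grow cells in 96-well plates. Step 2: Expose to compound for 48 hours at 5 concentrations. Step 3: Interpolate endpoints linearly; if unreached, use highest concentration. The concentration for 50% growth inhibition is given as GI50. TGI denotes the concentration required for complete inhibition of growth.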

Key:
Assay in all cases: inhibition of tumour cell growth, NCI panel, 48 h
BT-549 breast = tested on: BT-549 breast
ACHN renal = tested on: ACHN renal
SK-OV-3 ovarian = tested on: SK-OV-3 ovarian
CCRF-CEM leukemia = tested on: CCRF-CEM leukemia
NCI/ADR-RES ovarian = tested on: NCI/ADR-RES ovarian
MCF7 breast = tested on: MCF7 breast
OVCAR-4 ovarian = tested on: OVCAR-4 ovarian
KM12 colon = tested on: KM12 colon
M14 melanoma = tested on: M14 melanoma
HCT-116 colon = tested on: HCT-116 colon

| SMILES | GI50 (BT-549 breast) | TGI (BT-549 breast) | GI50 (ACHN renal) | TGI (ACHN renal) | GI50 (SK-OV-3 ovarian) | TGI (SK-OV-3 ovarian) | GI50 (CCRF-CEM leukemia) | TGI (CCRF-CEM leukemia) | GI50 (NCI/ADR-RES ovarian) | TGI (NCI/ADR-RES ovarian) | GI50 (MCF7 breast) | TGI (MCF7 breast) | GI50 (OVCAR-4 ovarian) | TGI (OVCAR-4 ovarian) | GI50 (KM12 colon) | TGI (KM12 colon) | GI50 (M14 melanoma) | TGI (M14 melanoma) | GI50 (HCT-116 colon) | TGI (HCT-116 colon) |
| --- | --- | --- | --- | --- | --- | --- | --- | --- | --- | --- | --- | --- | --- | --- | --- | --- | --- | --- | --- | --- |
| O=c1c(-c2ccccc2)coc2cc(OC/C(=N/O)c3ccc(F)cc3)ccc12 | 20.3 µM | 41.8 µM | 22.4 µM | 43.5 µM | 15.4 µM | 35.8 µM | 26 µM | > 100 µM | 23.9 µM | 62.3 µM | 25.9 µM | > 100 µM | 13.7 µM | 59.3 µM | 14.5 µM | 33.1 µM | 17.5 µM | 41.3 µM | 16 µM | 47.7 µM |
| CC1=C(C(=O)Nc2ccc(F)c(Cl)c2)C(c2ccccc2O)NC(=O)N1 (stereo not given) | 71.5 µM | > 100 µM | > 100 µM | > 100 µM | > 100 µM | > 100 µM | 59.9 µM | > 100 µM | > 100 µM | > 100 µM | 70.5 µM | > 100 µM | 12.2 µM | 68.6 µM | 70.9 µM | > 100 µM | 69.9 µM | > 100 µM | 51.7 µM | > 100 µM |
| CCOC1OC(=O)[C@H]2[C@@H]1[C@@H]1CC[C@H]2O1 (stereo not given in full) | > 100 µM | > 100 µM | > 100 µM | > 100 µM | > 100 µM | > 100 µM | > 100 µM | > 100 µM | > 100 µM | > 100 µM | > 100 µM | > 100 µM | > 100 µM | > 100 µM | > 76.2 µM | > 100 µM | > 100 µM | > 100 µM | > 100 µM | > 100 µM |
| NNc1c2ccccc2nc2ccccc12 | 4.15 µM | 36.8 µM | 5.31 µM | 33.9 µM | 6.91 µM | > 100 µM | 0.688 µM | > 100 µM | 3.76 µM | 27.4 µM | 3.77 µM | 33.7 µM | 2.62 µM | 19.4 µM | 4.55 µM | 27.8 µM | 6.11 µM | 21.8 µM | 3.99 µM | 17.6 µM |
| O=[N+]([O-])c1ccc2c(Nc3ccccc3-c3ccccc3Nc3c4ccccc4nc4cc([N+](=O)[O-])ccc34)c3ccccc3nc2c1 |  | 7.74 µM |  | 49 µM |  | > 56.2 µM |  | 37.6 µM |  | 25.7 µM |  | 39.3 µM |  | 57.2 µM |  | 36.9 µM |  | 18.4 µM |  | 6.38 µM |
| CC(=O)OC(C)C(OC(C)=O)C(OC(C)=O)C(/C=C/C1CC=CC(=O)O1)OC(C)=O (stereo not given) | 25.5 µM | 70.6 µM | 33.7 µM | > 100 µM | 78 µM | > 100 µM | 30.3 µM | > 100 µM | > 100 µM | > 100 µM | 33.6 µM | > 100 µM | 17.2 µM | 56.1 µM | 22.8 µM | 61 µM | 29.5 µM | > 100 µM | 20.4 µM | 48.4 µM |
| O=c1cccc(C#CC#CCCCO)o1 | 7.95 µM | 23.6 µM | 12.4 µM | 24.9 µM | 18.5 µM | 45.4 µM | 5.73 µM | > 100 µM | 9.47 µM | > 44.2 µM | 5.02 µM | 38.3 µM | 8.59 µM | > 57.9 µM | 0.834 µM | 9.26 µM | 4.76 µM | 21.5 µM | 3.06 µM | 8.49 µM |
| CC1(C)CC2=C(Sc3ccccc3N2)C(=O)C1C(=O)C(=O)Nc1cc(Cl)ccc1Cl (stereo not given) |  | > 100 µM |  | > 100 µM |  | > 100 µM |  | > 100 µM |  | > 100 µM |  | > 100 µM |  | > 100 µM |  | > 100 µM |  | > 100 µM |  | > 100 µM |
| O=C1c2ccccc2C(=O)N1C1(C(=O)NC2(C(=O)O)CCCC2)CCCC1 |  | > 100 µM |  | > 100 µM |  | > 100 µM |  | > 100 µM |  | > 100 µM |  | > 100 µM |  | > 100 µM |  | > 100 µM |  | > 100 µM |  | > 100 µM |
| Cc1cccc2c(Nc3ccc(NS(C)(=O)=O)cc3)c3ccc([N+](=O)[O-])cc3nc12 | 1.75 µM | 7.47 µM | 0.661 µM | 4.13 µM | 2.4 µM | 17.1 µM | 0.326 µM | 4.52 µM | 8.3 µM | 47.1 µM | 0.0382 µM | 3.58 µM | 1.9 µM | 6.38 µM | 0.694 µM | 2.97 µM | 0.808 µM | 3.4 µM | 0.927 µM | 5.24 µM |
| Cc1oc2c(c1C(=O)N1CC[C@@H](N)C1)C(=O)c1c(c(O)c3ccccc3c1O)C2=O | 8.83 µM | 22.5 µM | 0.629 µM | 11.1 µM | 1.1 µM | 7.86 µM | 1.01 µM | 4.33 µM | 2.39 µM | 8.56 µM | 1.01 µM | 4.9 µM | 2.92 µM | 11.8 µM | 2.98 µM | 14.4 µM | 1.41 µM | 2.96 µM | 1.28 µM | 4.59 µM |
| C=C1CC[C@@H]2[C@](C)(COC(C)=O)[C@H](OC(C)=O)CC[C@@]2(C)[C@@H]1CC(Nc1ccc(S(=O)(=O)Nc2nccs2)cc1)C1=CCOC1=O (stereo not given in full) | 2.43 µM | 6.5 µM | 5.99 µM | 18.9 µM | 14.4 µM | 27.8 µM | 2.28 µM | 6.76 µM | 2.97 µM | 12.7 µM | 2.59 µM | 13.6 µM | 4.53 µM | 17.7 µM | 7.58 µM | 21.7 µM | 2.83 µM | 10.5 µM | 1.75 µM | 3.75 µM |
| Cc1c2ccncc2c(C)c2c1c1cc(CO)ccc1n2C | 1.73 µM | 7.84 µM | 0.362 µM | 9.39 µM | 0.784 µM | 3.71 µM | 0.545 µM | 4.18 µM | 0.551 µM | 7.5 µM | 0.282 µM | 10.4 µM | 0.285 µM | 1.82 µM | 0.492 µM | 20 µM | 0.687 µM | 3.27 µM | 0.175 µM | 1.66 µM |
